Measurements taken from ChEMBL document CHEMBL6083238, “Design, synthesis and biological evaluation of novel benzocoumarin derivatives as potent inhibitors of MAO-B activity” (Bioorg Med Chem Lett, 2024).

What was measured:
[1] = target: T1, MAO-A (amine oxidase [flavin-containing] A) (Homo sapiens, UniProt P21397); experiment: in vitro; conditions: human MAO-A enzyme, probe p-tyramine
T1 sequence (P21397 whole entry): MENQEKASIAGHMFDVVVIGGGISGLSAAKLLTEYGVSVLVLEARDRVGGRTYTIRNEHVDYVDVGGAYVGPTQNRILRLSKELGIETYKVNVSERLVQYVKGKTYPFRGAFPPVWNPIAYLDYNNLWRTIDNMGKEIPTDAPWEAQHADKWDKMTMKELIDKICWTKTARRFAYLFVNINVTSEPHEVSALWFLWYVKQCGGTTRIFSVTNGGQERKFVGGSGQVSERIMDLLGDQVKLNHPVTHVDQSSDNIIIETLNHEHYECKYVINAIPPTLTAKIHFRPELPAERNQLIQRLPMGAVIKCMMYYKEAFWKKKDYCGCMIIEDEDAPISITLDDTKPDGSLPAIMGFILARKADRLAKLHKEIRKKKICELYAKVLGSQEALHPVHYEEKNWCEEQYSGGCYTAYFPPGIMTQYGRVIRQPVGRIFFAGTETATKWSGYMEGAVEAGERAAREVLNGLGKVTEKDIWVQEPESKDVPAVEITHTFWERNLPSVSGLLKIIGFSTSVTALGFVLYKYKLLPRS
Description: Inhibition of human MAO-A using p-tyramine as substrate at 100 uM by amplex red staining based fluorometric analysis relative to control

[2] = target: T2, Amine oxidase [flavin-containing] B (Homo sapiens, UniProt P27338)
T2 sequence (P27338 whole entry): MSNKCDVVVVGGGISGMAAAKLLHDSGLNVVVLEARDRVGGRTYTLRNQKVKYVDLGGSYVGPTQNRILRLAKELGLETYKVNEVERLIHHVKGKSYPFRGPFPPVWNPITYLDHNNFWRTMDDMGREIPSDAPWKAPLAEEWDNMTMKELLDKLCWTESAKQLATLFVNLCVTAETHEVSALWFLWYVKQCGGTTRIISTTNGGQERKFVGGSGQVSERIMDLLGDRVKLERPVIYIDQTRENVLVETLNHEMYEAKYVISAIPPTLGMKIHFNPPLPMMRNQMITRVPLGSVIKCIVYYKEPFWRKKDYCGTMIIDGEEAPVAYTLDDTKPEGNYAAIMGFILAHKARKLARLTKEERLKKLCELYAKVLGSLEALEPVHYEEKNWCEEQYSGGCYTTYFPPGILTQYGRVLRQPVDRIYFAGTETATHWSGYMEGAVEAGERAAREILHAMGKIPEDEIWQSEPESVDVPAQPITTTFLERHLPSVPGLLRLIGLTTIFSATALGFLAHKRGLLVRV
Description: Inhibition of human MAO-B using p-tyramine as substrate by amplex red staining based fluorometric analysis

[3] = target: T3, Amine oxidase [flavin-containing] A (Homo sapiens, UniProt P21397)
T3 sequence (P21397 whole entry): T1 sequence (P21397 whole entry)
Description: Inhibition of human MAO-A using p-tyramine as substrate by amplex red staining based fluorometric analysis

Row | inhibition at 100 µM [1] [%] | IC50 [2] [µM] | IC50 [3] [µM] | Structure (SMILES)
1 | 3.85 | 48.1 |  | COc1ccc(-c2cc3cc4ccccc4cc3oc2=O)cc1
2 |  | 13.9 | 78.3 | CC(=O)Oc1ccc(-c2cc3ccc4ccccc4c3oc2=O)cc1OC(C)=O
3 | 36.6 | 1.41 |  | COc1ccc(-c2cc3cc4ccccc4cc3oc2=O)cc1OC
4 |  | 54.4 | 97.2 | CC(=O)Oc1ccc(-c2cc3cc4ccccc4cc3oc2=O)cc1OC(C)=O
5 | 15.3 |  |  | COc1ccc(-c2cc3ccc4ccccc4c3oc2=O)cc1
6 | 24 | 0.241 |  | COc1ccc(-c2cc3ccc4ccccc4c3oc2=O)cc1OC
